Results from patent US20070078263A1, “BIARYL SUBSTITUTED HETEROCYCLE INHIBITORS OF LTA4H FOR TREATING INFLAMMATION” (deCODE Chemistry, Inc., priority 2005, published 2007).
Counter-ions that a name gives are not always drawn. Like-named read-outs stand apart in the source and are kept apart here.

Experiments:
[1] = molecular target: T1, human LTA4 hydrolase (Homo sapiens, UniProt P09960); test: In vitro assay testing inhibitory activity against purified recombinant human LTA4 hydrolase (LTB4 formed, LC-MS/MS); type: biochemical;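 note: 200 nM enzyme preincubated 10 min at room temperature with serial inhibitor dilutions in pH 8.0 Tris buffer with BSA and 10% DMSO, then 2 µM LTA4 added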
T1 construct: A human LTA4 hydrolase full-length cDNA clone (NM 000895) was purchased; His tag (6xHis of vector pDEST17); made in house; host or cells: Escherichia coli BL21-AI
T1 sequence (P09960 1-611): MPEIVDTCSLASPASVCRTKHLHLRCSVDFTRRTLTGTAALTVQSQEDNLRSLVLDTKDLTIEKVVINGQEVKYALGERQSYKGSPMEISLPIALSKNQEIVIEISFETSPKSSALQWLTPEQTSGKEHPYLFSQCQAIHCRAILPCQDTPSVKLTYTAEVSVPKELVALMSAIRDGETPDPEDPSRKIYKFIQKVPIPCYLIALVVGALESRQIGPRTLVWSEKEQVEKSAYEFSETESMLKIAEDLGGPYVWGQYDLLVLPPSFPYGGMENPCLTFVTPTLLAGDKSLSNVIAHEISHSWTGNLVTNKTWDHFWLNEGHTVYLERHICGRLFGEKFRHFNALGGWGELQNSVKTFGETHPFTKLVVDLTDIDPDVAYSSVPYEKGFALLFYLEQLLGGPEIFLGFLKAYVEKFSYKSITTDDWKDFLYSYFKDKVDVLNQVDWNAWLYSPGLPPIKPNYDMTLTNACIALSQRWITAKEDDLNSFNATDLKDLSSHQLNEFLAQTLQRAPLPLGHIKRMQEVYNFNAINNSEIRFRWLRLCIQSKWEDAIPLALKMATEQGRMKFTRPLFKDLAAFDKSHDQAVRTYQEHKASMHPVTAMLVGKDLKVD

[2] = test system: human whole blood; test: Ex vivo assay testing inhibitory activity in human whole blood after stimulation with calcium ionophore (LTB4 ELISA); type: cell-based; settings: Ionomycin 20 μM, read-out: hWBIC50;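 note: heparinized human blood preincubated 15 min at 37 °C with compound, then ionomycin-stimulated for 30 min, LTB4 in plasma supernatant quantified by ELISA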
Procedure: (2) Ex vivo assay testing inhibitory activity in human whole blood after stimulation with calcium ionophor.
Human blood was collected in heparin-containing Vacutainer tubes. […] Then 4 μl of a series of compound dilutions (in DMSO) were added, followed by a 15 min incubation at 37° C. with gentle shaking. After that, blood samples were stimulated by adding Ionomycin (Calbiochem) to a final concentration of 20 μM. After another incubation at 37° C. for 30 min, samples were centrifuged for 5 min at 1800 g and 4° C. Supernatants were taken and LTB4 concentrations were determined using a commercially available enzyme-linked immunosobentassay (R&D Systems, Minneapolis, Minn.) according to the manufacturer's instructions.

[3] = recombinant human LTA4 hydrolase 200 nM, LTA4 2 μM, read-out: AvgIC50

| Molecule | IC50 [1, 3] | IC50 [2] | IC50 [1] |
| --- | --- | --- | --- |
| c1ccc(Oc2ccc(OCC3CCCCN3)cc2)cc1 (racemic) [Example 74, (+/−)-2-[(4-phenoxyphenoxy)methyl]-piperidine hydrochloride] | < 5 µM | < 5 µM | – |
| Clc1ccc(Oc2ccc(OC[C@H]3CCCN3)cc2)cc1 [Example 13, (R)-2-[4-(4-Chloro-phenoxy)-phenoxymethyl]-pyrrolidine hydrochloride] | < 5 µM | < 5 µM | – |
| FC(F)(F)c1ccc(Oc2ccc(OC[C@H]3CCCN3)cc2)cc1 [Example 16, (R)-2-[4-(4-Trifluoromethyl-phenoxy)-phenoxymethyl]-pyrrolidine hydrochloride] | < 5 µM | < 5 µM | – |
| O=C(O)CCCN1CCC[C@@H]1COc1ccc(Oc2ccc(Cl)cc2)cc1 [Example 20, 4-{(R)-2-[4-(4-Chloro-phenoxy)-phenoxymethyl]-pyrrolidin-1-yl}-butyric acid hydrochloride] | – | < 5 µM | – |
| O=C(O)CCCN1CCC[C@H]1COc1ccc(Oc2ccc(Cl)cc2)cc1 [Example 22, 4-{(S)-2-[4-(4-Chloro-phenoxy)-phenoxymethyl]-pyrrolidin-1-yl}-butyric acid hydrochloride] | – | < 5 µM | – |
| c1coc(-c2ccc(Cc3ccc(OC[C@H]4CCCN4)cc3)cc2)n1 [Example 152, 2-{4-[4-((R)-1-Pyrrolidin-2-ylmethoxy)-benzyl]-phenyl}-oxazole] | < 5 µM | – | – |
| c1ncn(-c2ccc(Oc3ccc(OC[C@H]4CCCN4)cc3)cc2)n1 [Example 153, 1-{4-[4-((R)-1-Pyrrolidin-2-ylmethoxy)-phenoxy]-phenyl}-1H-[1,2,4]triazole hydrochloride salt] | < 5 µM | – | – |
| c1ccc(Cc2ccc(COC[C@H]3CCCN3)cc2)cc1 [Example 156, hydrochloride salt] | – | – | < 5 µM |
| O=C(O)CCCN1CCC[C@@H]1COCc1ccc(Cc2ccccc2)cc1 [Example 157, 4-[(R)-2-(4-Benzyl-benzyloxymethyl)pyrrolidin-1-yl]butylic acid hydrochloride salt] | < 5 µM | – | – |
| c1ccc(-c2ccc(Cc3ccc(OC[C@@H]4CCCN4)cc3)s2)cc1 [Example 161, (S)-2-[4-(5-Phenyl-thiophen-2-ylmethyl)-phenoxymethyl]-pyrrolidine hydrochloride salt] | < 5 µM | – | – |
| c1ccc(-c2ccc(Cc3ccc(OC[C@H]4CCCN4)cc3)o2)cc1 [Example 163, (R)-2-[4-(5-Phenyl-furan-2-ylmethyl)-phenoxymethyl]-pyrrolidine] | < 5 µM | – | – |
| c1ccc(Cc2ccc(-c3ccc(OC[C@H]4CCCN4)cc3)s2)cc1 [Example 170, (R)-2-[4-(5-Benzyl-thiophen-2-yl)-phenoxymethyl]-pyrrolidine] | < 5 µM | – | – |
| c1ccc(Cc2ccc(-c3ccc(OC[C@@H]4CCCN4)cc3)s2)cc1 [Example 172, (S)-2-[4-(5-Benzyl-thiophen-2-yl)-phenoxymethyl]-pyrrolidine] | < 5 µM | – | – |
| Cc1ccc(Oc2ccc(OC[C@@H]3CCCN3)cc2)cc1 [compound 37] | < 5 µM | – | – |
| (S)-2-[4-(2-thiophen-benzyl)-phenoxymethyl]-pyrrolidine hydrogen chloride salt [Example 117] | – | < 5 µM | – |

Second part, led by results:

| IC50 [1, 3] | IC50 [2] | Molecule | IC50 [1] |
| --- | --- | --- | --- |
| < 5 µM | < 5 µM | c1ccc(Cc2ccc(OCC3CCCCN3)cc2)cc1 (racemic) [Example 73, (+/−)-2-[(4-Benzylphenoxy)methyl]-piperidine hydrochloride] | – |
| < 5 µM | < 5 µM | O=C(O)CCCN1CCC[C@H]1COc1ccc(Cc2ccccc2)cc1 [Example 3, 4-[(S)-2-(4-benzyl-phenoxymethyl)-pyrrolidin-1-yl]-butyric acid] | – |
| < 5 µM | < 5 µM | c1ccc(Cc2ccc(OC[C@H]3CCCN3Cc3ccccn3)cc2)cc1 [Example 4, 2-[(R)-2-(4-benzyl-phenoxymethyl)-pyrrolidin-1-ylmethyl]-pyridine] | – |
| < 5 µM | < 5 µM | c1ccc(Cc2ccc(OC[C@H]3CCCN3Cc3cccnc3)cc2)cc1 [Example 5, 3-[(R)-2-(4-benzyl-phenoxymethyl)-pyrrolidin-1-ylmethyl]-pyridine] | – |
| < 5 µM | < 5 µM | COC(=O)CCCN1CCC[C@@H]1COc1ccc(Cc2ccccc2)cc1 [Example 8, 4-[(R)-2-(4-benzyl-phenoxymethyl)-pyrrolidin-1-yl]-butyric acid methyl ester] | – |
| < 5 µM | < 5 µM | O=C(O)CCN1CCC[C@@H]1COc1ccc(Cc2ccccc2)cc1 [Example 9, 3-[(R)-2-(4-benzyl-phenoxymethyl)-pyrrolidin-1-yl]-propionic acid hydrochloride] | – |
| < 5 µM | < 5 µM | O=C(O)CCCN1CCC[C@@H]1COc1ccc(Cc2ccccc2)cc1 [Example 10, 4-[(R)-2-(4-benzyl-phenoxymethyl)-pyrrolidin-1-yl]-butylic acid hydrochloride] | – |
| < 5 µM | < 5 µM | O=C(O)CCCN1CCC[C@H]1COc1ccc(Cc2ccc(Cl)cc2)cc1 [Example 21, 4-{(S)-2-[4-(4-Chloro-benzyl)-phenoxymethyl]-pyrrolidin-1-yl}-butyric acid hydrochloride] | – |
| < 5 µM | < 5 µM | NC(=O)CCCN1CCC[C@H]1COc1ccc(Oc2ccc(Cl)cc2)cc1 [Example 23, 4-{(S)-2-[4-(4-Chloro-phenoxy)-phenoxymethyl]-pyrrolidin-1-yl}-butyramide] | – |
| – | < 5 µM | O=C(CCCN1CCC[C@H]1COc1ccc(Oc2ccc(Cl)cc2)cc1)NO [Example 27, hydrochloride] | – |
| – | < 5 µM | NC(=O)NCCCN1CCC[C@H]1COc1ccc(Oc2ccc(Cl)cc2)cc1 [Example 40, (3-{(S)-2-[4-(4-Chloro-phenoxy)-phenoxymethyl]-pyrrolidin-1-yl}-propyl)-urea] | – |
| – | < 5 µM | O=C(O)CCCN1CCC[C@@H]1COc1ccc(Oc2ccc(-c3nccs3)cc2)cc1 [Example 147, 4-{(R)-2-[4-(4-Thiazol-2-yl-phenoxy)-phenoxymethyl]-pyrrolidin-1-yl}-butyric acid] | – |
| < 5 µM | – | O=C(O)CCCN1CCC[C@H]1COc1ccc(Cc2ccc(-c3nccs3)cc2)cc1 [Example 151, 4-{(S)-2-[4-(4-Thiazol-2-yl-benzyl)-phenoxymethyl]-pyrrolidin-1-yl}-butylic acid hydrochloride salt] | – |
| < 5 µM | – | O=C(O)CCCN1CCC[C@@H]1COc1ccc(Cc2ccc(-c3ccccc3)s2)cc1 [Example 160, 4-{(R)-2-[4-(5-Phenyl-thiophen-2-ylmethyl)-phenoxymethyl]-pyrrolidin-1-yl}-butyric acid] | – |
| < 5 µM | – | O=C(O)CCCN1CCC[C@H]1COc1ccc(Cc2ccc(-c3ccccc3)s2)cc1 [Example 162, 4-{(S)-2-[4-(5-Phenyl-thiophen-2-ylmethyl)-phenoxymethyl]-pyrrolidin-1-yl}-butyric acid] | – |
| < 5 µM | – | O=C(O)CCN1CCC[C@@H]1COc1ccc(Oc2ccccn2)cc1 [Example 168, 3-{2-[4-(Pyridin-2-yloxy)-phenoxymethyl]-pyrrolidin-1-yl}-propionic acid] | – |
| < 5 µM | – | O=C(O)CCCN1CCC[C@@H]1COc1ccc(-c2ccc(Cc3ccccc3)s2)cc1 [Example 171, 4-{(R)-2-[4-(5-Benzyl-thiophen-2-yl)-phenoxymethyl]-pyrrolidin-1-yl}-butyric acid] | – |
